Laboratory results taken from PMC12652222 (International Journal of Molecular Sciences, 2025).
Several values for one entry are separate records, joined by “and”; a condition that tells them apart may be missing. Equal entries are not always repeated.

Tests used:
DPPH radical scavenging = type: biochemical; settings: mean ± SE, n = 3; for DPPH (%): inhibition % at 20 µg/mL
Description: (§1) The antioxidant activity was assessed using the iron reducing power (IRP) and the total antioxidant capacity (TAC). Ascorbic acid served as a standard to calculate the inhibition percentages (%) and the median inhibitory concentration (IC50) of each tested compound against the following radicals: nitric oxide (NO), hydroxyl (OH), hydrogen peroxide (H2O2), ABTS [79], and DPPH [80].

protein denaturation = test: Protein denaturation inhibition (anti-arthritic); type: biochemical; set-up: concentration or dose not given beside the values; settings: mean ± SE, n = 3
Description: (§2) Anti-arthritic activity was evaluated using diclofenac sodium as the reference drug. The inhibition percentage and IC50 were determined for protein denaturation and the proteinase enzyme.

[1] = biological target: acetylcholinesterase (AChE) (Homo sapiens, UniProt P22303); test: biochemical; settings: mean ± SE, n = 3; for IC50: read-out: AChE IC50 (µg/mL) (converted)
Sequence of acetylcholinesterase (AChE) (P22303 32-614, species assumed): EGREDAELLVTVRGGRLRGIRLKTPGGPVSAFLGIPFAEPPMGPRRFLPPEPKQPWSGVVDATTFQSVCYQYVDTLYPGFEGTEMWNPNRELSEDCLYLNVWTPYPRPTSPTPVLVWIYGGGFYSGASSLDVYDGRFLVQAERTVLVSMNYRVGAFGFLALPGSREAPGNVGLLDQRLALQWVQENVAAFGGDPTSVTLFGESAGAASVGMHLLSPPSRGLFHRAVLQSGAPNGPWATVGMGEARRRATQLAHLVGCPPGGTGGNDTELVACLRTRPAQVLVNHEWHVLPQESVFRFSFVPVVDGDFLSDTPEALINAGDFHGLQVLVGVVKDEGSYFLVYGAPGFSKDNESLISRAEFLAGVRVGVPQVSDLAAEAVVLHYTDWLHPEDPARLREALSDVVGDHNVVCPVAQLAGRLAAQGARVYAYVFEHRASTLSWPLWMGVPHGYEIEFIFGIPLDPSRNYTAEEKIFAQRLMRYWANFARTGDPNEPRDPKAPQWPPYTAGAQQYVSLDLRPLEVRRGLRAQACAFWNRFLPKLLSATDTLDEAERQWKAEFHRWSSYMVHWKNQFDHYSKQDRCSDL
Description: The inhibition percentage and IC50 of the acetylcholinesterase (AChE) enzyme were measured using the Ellman method.

[2] = Hydrogen peroxide (H2O2) scavenging; type: biochemical; settings: mean ± SE, n = 3; for H2O2 (%): inhibition % at 20 µg/mL
Description: as §1

proteinase enzyme = test: Proteinase inhibition (anti-arthritic); type: biochemical; set-up: Proteinase Inhibition (%): concentration or dose not given beside the values; settings: mean ± SE, n = 3
Description: as §2

[3] = Hydroxyl (OH) radical scavenging; type: biochemical; settings: mean ± SE, n = 3; for OH (%): inhibition % at 20 µg/mL
Description: as §1

ABTS radical scavenging = type: biochemical; settings: mean ± SE, n = 3; for ABTS (%): inhibition % at 20 µg/mL
Description: as §1

α-glucosidase = test: α-Glucosidase inhibition; type: biochemical; settings: for inhibition of α-glucosidase: at 20 µg/mL
Description: (§3) The IC50 and inhibition percentages (Inhib. %) of the enzymes α-amylase and α-glucosidase were calculated.

[4] = Total antioxidant capacity (TAC); type: biochemical; settings: mean ± SE, n = 3
Description: as §1

α-amylase = biological target: T1, α-amylase (Homo sapiens, UniProt P04746); test: α-Amylase inhibition; type: biochemical; settings: for inhibition at 20 µg/mL: read-out: α-Amylase Inhibition (%)
T1 sequence (P04746 16-511): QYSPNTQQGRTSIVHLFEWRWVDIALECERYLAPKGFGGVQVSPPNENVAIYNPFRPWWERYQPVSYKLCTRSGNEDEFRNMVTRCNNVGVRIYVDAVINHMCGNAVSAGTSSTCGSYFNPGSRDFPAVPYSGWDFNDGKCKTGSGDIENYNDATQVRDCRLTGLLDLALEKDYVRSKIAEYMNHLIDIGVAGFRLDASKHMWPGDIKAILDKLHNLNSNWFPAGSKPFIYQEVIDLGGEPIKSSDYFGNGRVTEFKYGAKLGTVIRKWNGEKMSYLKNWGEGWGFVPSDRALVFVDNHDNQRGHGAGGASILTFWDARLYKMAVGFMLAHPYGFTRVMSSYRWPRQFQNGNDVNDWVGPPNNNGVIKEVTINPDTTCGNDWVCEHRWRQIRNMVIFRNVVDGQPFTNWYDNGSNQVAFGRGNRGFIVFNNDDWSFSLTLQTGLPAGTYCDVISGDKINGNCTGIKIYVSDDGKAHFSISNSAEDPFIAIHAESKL
Description: as §3

[5] = Iron-reducing power (IRP); type: biochemical; settings: mean ± SE, n = 3
Description: as §1

[6] = Nitric oxide (NO) radical scavenging; type: biochemical; settings: mean ± SE, n = 3; for NO (%): inhibition % at 20 µg/mL
Description: as §1

| Structure (SMILES) | DPPH radical scavenging IC50 (DPPH radical scavenging) | Protein Denaturation Inhibition (%) (protein denaturation) | inhibition at 20 µg/mL [1] | IC50 [1] | H2O2 scavenging IC50 [2] | Proteinase IC50 (proteinase enzyme) | Proteinase Inhibition (%) (proteinase enzyme) | OH radical scavenging IC50 [3] | ABTS radical scavenging IC50 (ABTS radical scavenging) | α-Glucosidase IC50 (α-glucosidase) | inhibition of α-glucosidase (α-glucosidase) | TAC (mg Gallic Acid/g) [4] | inhibition at 20 µg/mL (α-amylase) | IRP [5] | NO radical scavenging IC50 [6] | DPPH (%) (DPPH radical scavenging) | H2O2 (%) [2] | OH (%) [3] | ABTS (%) (ABTS radical scavenging) | NO (%) [6] | other results |
| --- | --- | --- | --- | --- | --- | --- | --- | --- | --- | --- | --- | --- | --- | --- | --- | --- | --- | --- | --- | --- | --- |
| O=c1/c(=C\[C@@H](O)[C@@H](O)[C@H](O)[C@H](O)CO)sc2nc3sc4c(c3c(=O)n12)CCCC4 [8b, (E)-2-((2R,3R,4R,5R)-2,3,4,5,6-pentahydroxyhexylidene)-6,7,8,9-tetrahydro-5H-benzo-[4,5]thieno [2,3-d]thiazolo [3,2-a]pyrimidine-3,5(2H)-dione] | 6.01 ± 0.12 µg/mL | 11.80 ± 0.19% | 5.19 ± 0.16% | 126 µM | 10.28 ± 0.12 µg/mL | 65.93 ± 2.02 µg/mL | 7.63 ± 0.19% | 9.24 ± 0.05 µg/mL | 4.78 ± 0.05 µg/mL | 3.85 ± 0.05 µg/mL | 54.78 ± 0.74% | 68.01 mg Gallic Acid/g and 68.01 ± 0.78 mg Gallic Acid/g | 61.5 ± 0.74% | 60.86 µg/mL and 60.86 ± 0.78 µg/mL | 6.88 ± 0.16 µg/mL |  |  |  |  |  | IC50 (α-amylase): 15.4 µM |
| O=C1O[C@H]([C@@H](O)CO)C(O)=C1O [ascorbic acid, reference compound] | 5.45 µg/mL |  |  |  | 9.24 µg/mL |  |  | 8.31 µg/mL | 4.35 µg/mL |  |  | 78.44 mg Gallic Acid/g |  | 67.49 µg/mL | 6.18 µg/mL |  |  |  |  |  |  |
| O=c1/c(=C\[C@H](O)[C@@H](O)[C@H](O)[C@H](O)CO)sc2nc3sc4c(c3c(=O)n12)CCCC4 [8a, (E)-2-((2S,3R,4R,5R)-2,3,4,5,6-pentahydroxyhexylidene)-6,7,8,9-tetrahydro-5H-benzo [4,5]thieno [2,3-d]thiazolo [3,2-a]-pyrimidine-3,5(2H)-dione] | 36.82 ± 0.42 µg/mL | 8.74 ± 0.15% | 5.81 ± 0.18% | 112 µM | 126.37 ± 4.09 µg/mL | 101.84 ± 3.59 µg/mL | 4.57 ± 0.15% | 113.71 ± 4.73 µg/mL | 23.63 ± 0.28 µg/mL | 64.26 ± 2.84 µg/mL |  | 13.95 ± 0.18 mg Gallic Acid/g | 10.1 ± 0.17% | 6.80 ± 0.18 µg/mL | 84.51 ± 2.12 µg/mL | 10.55 ± 0.18% | 4.67 ± 0.17% | 4.17 ± 0.15% | 13.70 ± 0.18% | 4.80 ± 0.18% |  |
| O=c1/c(=C\[C@H](O)[C@@H](O)[C@H](O)CO)sc2nc3sc4c(c3c(=O)n12)CCCC4 [8d, (E)-2-((2S,3R,4R)-2,3,4,5-tetrahydroxypentylidene)-6,7,8,9-tetrahydro-5H-benzo [4,5]thieno [2,3-d]thiazolo [3,2-a]-pyrimidine-3,5(2H)-dione] | 28.53 ± 0.30 µg/mL | 11.28 ± 0.18% | 5.61 ± 0.18% | 125 µM | 77.03 ± 1.82 µg/mL | 65.40 ± 1.90 µg/mL | 7.11 ± 0.18% | 69.29 ± 2.28 µg/mL | 19.31 ± 0.23 µg/mL | 33.99 ± 0.98 µg/mL |  | 17.02 ± 0.21 mg Gallic Acid/g | 13 ± 0.2% | 9.87 ± 0.21 µg/mL | 51.52 ± 0.85 µg/mL | 13.62 ± 0.21% | 7.66 ± 0.21% | 6.84 ± 0.19% | 16.77 ± 0.21% | 7.87 ± 0.21% |  |
| O=c1/c(=C\[C@@H](O)[C@H](O)[C@H](O)CO)sc2nc3sc4c(c3c(=O)n12)CCC4 [7e, (E)-2-((2R,3S,4R)-2,3,4,5-tetrahydroxypentylidene)-7,8-dihydro-5H,6H-cyclopenta [4,5]thieno [2,3-d]thiazolo [3,2-a]-pyrimidine-3,5(2H)-dione] | 25.27 ± 0.54 µg/mL | 12.73 ± 0.18% | 4.11 ± 0.13% | 176 µM | 62.92 ± 1.25 µg/mL | 54.22 ± 0.58 µg/mL | 8.56 ± 0.18% | 56.57 ± 0.81 µg/mL | 17.47 ± 0.17 µg/mL | 26.75 ± 0.52 µg/mL |  | 18.77 ± 0.21 mg Gallic Acid/g | 14.6 ± 0.2% | 11.62 ± 0.21 µg/mL | 42.12 ± 1.33 µg/mL | 15.37 ± 0.21% | 9.37 ± 0.21% | 8.37 ± 0.19% | 18.52 ± 0.21% | 9.62 ± 0.21% |  |
| O=c1/c(=C\[C@H](O)[C@@H](O)[C@@H](O)[C@H](O)CO)sc2nc3sc4c(c3c(=O)n12)CCCC4 [8c, (E)-2-((2S,3R,4S,5R)-2,3,4,5,6-pentahydroxyhexylidene)-6,7,8,9-tetrahydro-5H-benzo [4,5]-thieno [2,3-d]thiazolo [3,2-a]-pyrimidine-3,5(2H)-dione] | 31.07 ± 0.34 µg/mL | 10.35 ± 0.17% | 5.93 ± 0.19% | 110 µM | 89.75 ± 2.32 µg/mL | 75.16 ± 2.30 µg/mL | 6.18 ± 0.17% | 80.74 ± 2.84 µg/mL | 20.68 ± 0.24 µg/mL | 41.00 ± 1.33 µg/mL |  | 15.90 ± 0.20 mg Gallic Acid/g | 11.9 ± 0.19% | 8.75 ± 0.20 µg/mL | 60.02 ± 1.12 µg/mL | 12.50 ± 0.20% | 6.58 ± 0.20% | 5.87 ± 0.17% | 15.65 ± 0.20% | 6.75 ± 0.20% |  |
| O=C(O)Cc1ccccc1Nc1c(Cl)cccc1Cl [Diclofenac sodium, reference compound] |  | 60.74 ± 0.14% |  |  |  | 8.20 ± 0.06 µg/mL | 56.57 ± 0.14% |  |  |  |  |  |  |  |  |  |  |  |  |  |  |
| O=c1/c(=C\[C@@H](O)[C@H](O)[C@H](O)CO)sc2nc3sc4c(c3c(=O)n12)CCCC4 [8e, (E)-2-((2R,3S,4R)-2,3,4,5-tetrahydroxypentylidene)-6,7,8,9-tetrahydro-5H-benzo [4,5]thieno [2,3-d]thiazolo [3,2-a]pyrimidine-3,5(2H)-dione] | 5.95 ± 0.12 µg/mL | 54.07 ± 0.65% | 5.24 ± 0.17% | 134 µM | 10.17 ± 0.12 µg/mL | 9.08 ± 0.11 µg/mL | 50.90 ± 0.65% | 9.14 ± 0.05 µg/mL | 4.73 ± 0.05 µg/mL | 3.81 ± 0.05 µg/mL | 55.43 ± 0.75% | 68.69 mg Gallic Acid/g and 68.69 ± 0.79 mg Gallic Acid/g | 62.2 ± 0.75% | 61.54 µg/mL and 61.54 ± 0.79 µg/mL | 6.80 ± 0.16 µg/mL |  |  |  |  |  | IC50 (α-amylase): 16.3 µM |
| C[C@H]1O[C@H](O[C@H]2[C@H](O)[C@@H](O)[C@@H](O[C@H]3[C@H](O)[C@@H](O)C(O)O[C@@H]3CO)O[C@@H]2CO)[C@H](O)[C@@H](O)[C@@H]1N[C@H]1C=C(CO)[C@@H](O)[C@H](O)[C@H]1O (stereo partly drawn) [Acarbose, reference compound] |  |  |  |  |  |  |  |  |  |  | 63.10 ± 0.16% |  | 69.85 ± 0.16% |  |  |  |  |  |  |  |  |
